This assay deals with human telomeric G-quadruplex DNA (F21T). As to the kind of experiment: FRET melting assay, human telomeric quadruplex. The assay is classed as binding. Particulars: compared to the n=3 compounds. The text has this: The ability of the naphthalene diimide compounds to stabilize DNA sequences was investigated using a fluorescence resonance energy transfer (FRET) assay modified to be used as a high-throughput screen in a 96-well format. Several quadruplex sequences were studied (the human telomeric G-quadruplex DNA sequence 5′-FAM-d(GGG[TTAGGG]3)-TAMRA-3′ and the duplex sequence 5′-FAM-dTATAGCTATA-HEG-TATAGCTATA-TAMRA-3′ (HEG linker: [(—CH2—CH2—O—)6])), as well as two overlapping sequences from the HSP90 promoter region (HSP90a and HSP90b):
The labelled oligonucleotides have attached to them the donor fluorophore FAM: 6-carboxyfluorescein and the acceptor fluorophore TAMRA: 6-carboxytetramethylrhodamine. The FRET probe sequences were diluted from stock to the correct concentration (400 nM) in a 60 mM potassium cacodylate buffer (pH 7.4) and then annealed by heating to 85° C. for 10 min, followed by cooling to room temperature in the heating block. The compound was stored as a 10 mM stock solution in DMSO; final solutions (at 2×concentration) were prepared using 10 mM HCl in the initial 1:10 dilution, after which 60 mM potassium cacodylate buffer (pH 7.4) was used in all subsequent steps. The maximum HCl concentration in the reaction volume (at a ligand concentration of 20 μM) is thus 200 μM, well within the range of the buffer used. Relevant controls were also performed to check for interference with the assay. 96-Well plates (MJ Research, Waltham, Mass.) were prepared by aliquoting 50 μl of the annealed DNA into each well, followed by 50 μl of the compound solutions. Measurements were made on a DNA Engine Opticon (MJ Research) with excitation at 450-495 nm and detection at 515-545 nm. Fluorescence readings were taken at intervals of 0.5° C. in the range 30-100° C., with a constant temperature being maintained for 30 s prior to each reading to ensure a stable value. Final analysis of the data was carried out using a script written in the program Origin 7.0 (OriginLab Corp., Northampton, Mass.). The advanced curve-fitting function in Origin 7.0 was used for calculation of ΔTm values. All determinations were performed in triplicate or better. Esds in ΔTm are ±0.1° C.
The ability of compounds 3a-h to stabilize a human telomeric quadruplex was assessed by a high-throughput FRET (Fluorescence Resonance Energy Transfer) melting technique. […] None of the furan tetrahydrofuran, pyranose or acyclic ether compounds has any effect on quadruplex or duplex stability.
The T-loop sequence represents duplex DNA.

In the case of `CN1CCN(CCCNc2cc3c4c(c(NCCCN5CCN(C)CC5)cc5c4c2C(=O)N(CCN2CCOCC2)C5=O)C(=O)N(CCN2CCOCC2)C3=O)CC1` [Compound 3f, 4,9-bis((3-(4-methylpiperazin-1-yl)propyl)amino)-2,7-bis(2-morpholinoethyl)benzo[lmn][3,8]phenanthroline-1,3,6,8(2H,7H)-tetraone], the “selectivity for quadruplex over duplex DNA (in words)” value is on record as “superior selectivity for quadruplex over duplex DNA”.
Take `CN1CCN(CCNc2cc3c4c(c(NCCN5CCN(C)CC5)cc5c4c2C(=O)N(CCN2CCOCC2)C5=O)C(=O)N(CCN2CCOCC2)C3=O)CC1` [Compound 3g, 4,9-bis((2-(4-methylpiperazin-1-yl)ethyl)amino)-2,7-bis(2-morpholinoethyl)benzo[lmn][3,8]phenanthroline-1,3,6,8(2H,7H)-tetraone]: the “selectivity for quadruplex over duplex DNA (in words)” value was “superior selectivity for quadruplex over duplex DNA”.

Values taken from patent publication US9493460B2, “Diimide compounds” (UCL BUSINESS PLC, priority 2013, dated 2016).
